Test results reported in article PMC7489219 (Molecular Brain, 2020).
Structures can show the parent of a compound that is named as a salt.

These compounds were tested on T1, primary mouse cortical neurons (assay: cells). Settings: Cortical neurone, 20 h, read-out: % inhibition, inhibition of NMDA-induced cell death (protection score), 30 min pre-treatment.
T1 construct: primary cortical neurons, DIV 10
Parameters: Protection from NMDA-induced (30 uM, 10 min) neuronal death; Hoechst nuclear morphology by automated microscopy
Protocol: On DIV 10, compounds were applied to the cells reaching an end concentration of 10 μM. Cells were incubated for 30 min at 37 °C, 5% CO2 before adding NMDA (30 μM). Cells were incubated for another 10 min in the incubator, then washed twice with defined minimal medium containing 10 μM of the respective compound and incubated for an additional 20 h before readout. Untreated (no NMDA) and NMDA-only stimulated wells were treated with 0.1% DMSO. […] After 15 min of incubation at room temperature, cells were washed twice with phosphate buffered saline. […] Dead neurons were identified by amorphous or shrunken nuclei using CellProfiler and CellProfiler Analyst software. For all cell death analyses the experimental unit (N) is defined as an independent experiment using an independent neuronal preparation. For each independent experiment, data from 3 replicate wells (i.e., from 36 images), representing an average of 3000 cells was analyzed per condition. The survival rate S was calculated by dividing the number of living cells by the total number of cells. The survival rate was then used to calculate the protection score according to Scompound−Svehicle/Suntreated−Svehicle×100=%protection , where ‘compound’ refers to compound + NMDA treatment, ‘vehicle’ refers to vehicle + NMDA treatment, and ‘untreated’ refers to DMSO control. […] As a proof of principle, we next used our assay to screen two commercially available drug libraries. In these screens, primary cortical cells were incubated with test compounds at 10 μM concentration for 30 min before addition of 30 μM NMDA. After 10 min NMDA treatment, cells were washed with fresh medium and kept in the presence of test compounds for 20 h until assessment of cell viability. […] This library covers structurally diverse drugs from several fields such as oncology, cardiology, immunology, and neurology/psychiatry.
For `COc1ccc(-c2cc(=O)c3c(OC)c(OC)c(OC)c(OC)c3o2)cc1` [Tangeretin (Tangeritin)], the inhibition at 10 µM was -0.746%. With `Nc1ccn([C@@H]2O[C@H](CO)[C@@H](O)[C@@H]2O)c(=O)n1` [Cytarabine] the inhibition at 10 µM was 38.3%. Compound `O=C1CCC[C@@H]2[C@H]3CCC[N@+]4([O-])CCC[C@@H](CN12)[C@@H]34` [Oxymatrine (Matrine N-oxide)] has an inhibition at 10 µM of -1.44%. `Cc1cc(C(C)(C)C)c(O)c(C)c1CC1=NCCN1` [Oxymetazoline hydrochloride] gave an inhibition at 10 µM of -9.52%. For `C[C@]12C=CC(=O)C=C1CC[C@H]1[C@@H]3C[C@@H](O)[C@](O)(C(=O)CO)[C@@]3(C)C[C@H](O)[C@@]12F` [Triamcinolone (Aristocort)], the inhibition at 10 µM was 16.3%. In the case of `CCC[C@@H]1C[C@@H](C(=O)N[C@@H]([C@H]2O[C@H](SC)[C@H](O)[C@@H](O)[C@H]2O)[C@@H](C)O)N(C)C1` [Lincomycin hydrochloride (Lincocin)], the inhibition at 10 µM is reported as -7.87%. Work on `COc1ccc(C(CN(C)C)C2(O)CCCCC2)cc1` (centres unmarked) [Venlafaxine] yielded an inhibition at 10 µM of 22.6%. `NC(=O)CC[C@H](N)C(=O)O` [L-Glutamine] showed an inhibition at 10 µM of -2.01%. With `COc1ccc(CCC(=O)c2c(O)cc(O[C@@H]3O[C@H](CO)[C@@H](O)[C@H](O)[C@H]3O[C@@H]3O[C@@H](C)[C@H](O)[C@@H](O)[C@H]3O)cc2O)cc1O` [Neohesperidin dihydrochalcone (Nhdc)] the inhibition at 10 µM was -3.39%. Compound `Cc1cc(O)c2c(c1)C(=O)c1cccc(O)c1C2=O` [Chrysophanic acid (Chrysophanol)] has an inhibition at 10 µM of 8.58%. Work on `O=c1c(O)c(-c2ccc(O)cc2)oc2cc(O)cc(O)c12` [Kaempferol] yielded an inhibition at 10 µM of -2.58%. `O[C@@H](CNC[C@H](O)[C@H]1CCc2cc(F)ccc2O1)[C@@H]1CCc2cc(F)ccc2O1` [Nebivolol (Bystolic)] was tested, and the inhibition at 10 µM was -2.64%. Compound `C[C@@H](NCCc1ccc(O)cc1)[C@@H](O)c1ccc(O)cc1` (racemic) [Ritodrine hydrochloride (Yutopar)] has an inhibition at 10 µM of 3.89%. For `CCCCCCOC(=O)NC(=N)c1ccc(NCc2nc3cc(C(=O)N(CCC(=O)OCC)c4ccccn4)ccc3n2C)cc1` [BIBR-1048 (Dabigatran)], the inhibition at 10 µM was 0.466%. `CCCCC1=NC2(CCCC2)C(=O)N1Cc1ccc(-c2ccccc2-c2nnn[nH]2)cc1` [Irbesartan (Avapro)] gave an inhibition at 10 µM of 0.237%. Compound `C=C[C@](C)(O)CC[C@@H]1[C@@]2(C)CCCC(C)(C)[C@@H]2CC[C@@]1(C)O` [Sclareol] has an inhibition at 10 µM of 23.8%. `CN(C)CCCN1c2ccccc2CCc2ccc(Cl)cc21` [Clomipramine hydrochloride (Anafranil)] was tested, and the inhibition at 10 µM was -0.839%. Compound `CCC1(c2ccccc2)C(=O)NCNC1=O` [Primidone (Mysoline)] has an inhibition at 10 µM of 27.9%. For `CC[N+](CC)(CC)CCOc1cccc(OCC[N+](CC)(CC)CC)c1OCC[N+](CC)(CC)CC` [Gallamine triethiodide (Flaxedil)], the inhibition at 10 µM was -8.46%. `O=C1[C@H](CC[C@H](O)c2ccc(F)cc2)[C@@H](c2ccc(O)cc2)N1c1ccc(F)cc1` [Ezetimibe (Zetia)] gave an inhibition at 10 µM of 21.4%. Work on `CC(C)NCC(O)c1ccc(NS(C)(=O)=O)cc1` (centres unmarked) [Sotalol (Betapace)] yielded an inhibition at 10 µM of -6.66%. In the case of `Cc1ccc(-c2cc(C(F)(F)F)nn2-c2ccc(S(N)(=O)=O)cc2)cc1` [Celecoxib], the inhibition at 10 µM is reported as -7.05%. `CN(C)CCc1c[nH]c2ccc(Cn3cncn3)cc12` [Rizatriptan Benzoate (Maxalt)] was tested, and the inhibition at 10 µM was 14.3%. Work on `C#Cc1cccc(Nc2ncnc3cc(OCCOC)c(OCCOC)cc23)c1` [Erlotinib HCl] yielded an inhibition at 10 µM of 22.9%. Work on `CCC[C@@H]1C[C@@H](C(=O)N[C@@H]([C@H]2O[C@H](SC)[C@H](O)[C@@H](O)[C@H]2O)[C@H](C)Cl)N(C)C1` [Clindamycin hydrochloride (Dalacin)] yielded an inhibition at 10 µM of 2.41%. With `CC(=O)O[C@H]1CC[C@@]2(C)C(=CC[C@@H]3[C@@H]2CC[C@]2(C)C(c4cccnc4)=CC[C@@H]32)C1` [Abiraterone Acetate (CB7630)] the inhibition at 10 µM was -0.808%. `CN[C@@H]1[C@H](O)[C@H](NC)[C@H]2O[C@@]3(O)C(=O)C[C@@H](C)O[C@H]3O[C@@H]2[C@H]1O` [Spectinomycin hydrochloride] was tested, and the inhibition at 10 µM was -1.03%. `CNCCC[C@]12CC[C@H](c3ccccc31)c1ccccc12` [Maprotiline hydrochloride] was tested, and the inhibition at 10 µM was 0.000867%. For `Cc1[nH]c(=O)c(C#N)cc1-c1ccncc1` [Milrinone (Primacor)], the inhibition at 10 µM was -10.4%. Work on `CN(C)CCc1ccc(O)cc1` [Hordenine] yielded an inhibition at 10 µM of -0.889%. In the case of `C[C@@H]1CC[C@@]2(OC1)O[C@H]1C[C@H]3[C@@H]4CC=C5C[C@@H](O)CC[C@]5(C)[C@H]4CC[C@]3(C)[C@H]1[C@@H]2C` [Diosgenin], the inhibition at 10 µM is reported as -1.47%. For `C[C@@H]1C/C=C/C=C/C=C/C=C/[C@H](O[C@@H]2O[C@H](C)[C@@H](O)[C@H](N)[C@@H]2O)C[C@@H]2O[C@](O)(C[C@@H](O)C[C@H]3O[C@@H]3/C=C/C(=O)O1)C[C@H](O)[C@H]2C(=O)O` [Natamycin (Pimaricin)], the inhibition at 10 µM was -0.639%. `CCCNC(C)C(=O)Nc1ccccc1C` (centres unmarked) [Prilocaine] showed an inhibition at 10 µM of 7.71%. `Nc1nc2c(ncn2[C@@H]2O[C@H](CO)[C@@H](O)[C@H]2O)c(=O)[nH]1` [Guanosine] gave an inhibition at 10 µM of -1.96%. `CC1(C)O[C@@H]2C[C@H]3[C@@H]4CCC5=CC(=O)C=C[C@]5(C)[C@H]4[C@@H](O)C[C@]3(C)[C@]2(C(=O)CO)O1` [Desonide] was tested, and the inhibition at 10 µM was 9.64%. For `CCCc1nc(C)c2c(=O)nc(-c3cc(S(=O)(=O)N4CCN(CC)CC4)ccc3OCC)[nH]n12` [Vardenafil (Vivanza)], the inhibition at 10 µM was -5.64%. `C[C@H](CCC(=O)O)[C@H]1CC[C@H]2[C@@H]3[C@H](O)C[C@@H]4C[C@H](O)CC[C@]4(C)[C@H]3CC[C@]12C` [Chenodeoxycholic acid] was tested, and the inhibition at 10 µM was -2.92%. Work on `CC(c1cc2ccccc2s1)N(O)C(N)=O` (centres unmarked) [Zileuton] yielded an inhibition at 10 µM of -10.2%. Compound `COc1ccc(-c2nc3cc(C4=NNC(=O)CC4C)ccc3[nH]2)cc1` (centres unmarked) [Pimobendan (Vetmedin)] has an inhibition at 10 µM of -0.217%. With `Oc1ccc(OCc2ccccc2)cc1` [Monobenzone (Benoquin)] the inhibition at 10 µM was 49.3%. `O=c1[nH]cnc2c1ncn2[C@H]1CC[C@@H](CO)O1` [Didanosine (Videx)] gave an inhibition at 10 µM of 11.6%. Work on `O=c1[nH]c(=O)n([C@H]2C[C@H](O)[C@@H](CO)O2)cc1C(F)(F)F` [Trifluridine (Viroptic)] yielded an inhibition at 10 µM of 9.42%. `CC1(C)O[C@@H]2C[C@H]3[C@@H]4CCC5=CC(=O)C=C[C@]5(C)[C@@]4(F)[C@@H](O)C[C@]3(C)[C@]2(C(=O)CO)O1` [Triamcinolone acetonide] gave an inhibition at 10 µM of 59.8%. Work on `COc1cnc(NS(=O)(=O)c2ccc(N)cc2)nc1` [Sulfameter (Bayrena)] yielded an inhibition at 10 µM of 28.2%. With `Cc1cccc(C)c1OCC(=O)N[C@@H](Cc1ccccc1)[C@@H](O)C[C@H](Cc1ccccc1)NC(=O)[C@H](C(C)C)N1CCCNC1=O` [Lopinavir (ABT-378)] the inhibition at 10 µM was 1.09%. Compound `O=C(O)c1cccnc1` [Niacin (Nicotinic acid)] has an inhibition at 10 µM of -0.509%. For `CN1CCN(C2=Nc3cc(Cl)ccc3Nc3ccccc32)CC1` [Clozapine (Clozaril)], the inhibition at 10 µM was -5.01%. `CCCC[N+]1(C)[C@@H]2CC(OC(=O)[C@H](CO)c3ccccc3)C[C@H]1[C@@H]1O[C@@H]12` (some centres unmarked) [Butylscopolamine bromide (Scopolamine butylbromide)] was tested, and the inhibition at 10 µM was 5%. `O=c1c(O)c(-c2cc(O)c(O)c(O)c2)oc2cc(O)cc(O)c12` [Myricetin (Cannabiscetin)] was tested, and the inhibition at 10 µM was -1.08%. For `O=C(CCCN1CCC(O)(c2ccc(Cl)cc2)CC1)c1ccc(F)cc1` [Haloperidol (Haldol)], the inhibition at 10 µM was 65%. For `C[C@H](CCC(=O)O)[C@H]1CC[C@H]2[C@@H]3C[C@H](O)[C@@H]4C[C@H](O)CC[C@]4(C)[C@H]3CC[C@]12C` [Hyodeoxycholic acid (HDCA)], the inhibition at 10 µM was -3.21%. With `Cn1ccnc1S` [Methimazole (Tapazole, Northyx)] the inhibition at 10 µM was 15.5%. `O=c1cc(-c2ccc(O)cc2)oc2cc(O)cc(O)c12` [Apigenin] was tested, and the inhibition at 10 µM was -0.752%. Work on `O=C1NC(=O)C(c2ccccc2)(c2ccccc2)N1` [Phenytoin (Lepitoin)] yielded an inhibition at 10 µM of 21.2%. `C[C@H]1[C@H](C)CC[C@]2(C(=O)O)CC[C@]3(C)C(=CC[C@@H]4[C@@]5(C)CC[C@H](O)C(C)(C)[C@@H]5CC[C@]43C)[C@H]12` [Ursolic acid (Malol)] showed an inhibition at 10 µM of 6.94%. `CN1CCN2c3ccccc3Cc3ccccc3C2C1` (centres unmarked) [Mianserin hydrochloride] gave an inhibition at 10 µM of -2.1%. With `C[C@@H](NCCCc1cccc(C(F)(F)F)c1)c1cccc2ccccc12` [AMG-073 HCl (Cinacalcet hydrochloride)] the inhibition at 10 µM was -14.8%. Compound `COc1cc([C@@H]2c3cc4c(cc3[C@@H](O[C@@H]3O[C@@H]5CO[C@@H](c6cccs6)O[C@H]5[C@H](O)[C@H]3O)[C@H]3COC(=O)[C@H]23)OCO4)cc(OC)c1O` [Teniposide (Vumon)] has an inhibition at 10 µM of -0.429%. `O=c1cc(-c2ccccc2)oc2cc(O)cc(O)c12` [Chrysin] was tested, and the inhibition at 10 µM was -0.0506%.
